Data published in patent US10940141B1, “Methods for the administration of certain VMAT2 inhibitors” (Neurocrine Biosciences, Inc., priority 2019, dated 2021).
One block for each compound: values may come before it.

Legend:
[1] = Phase 1, open-label, single-dose PK study of valbenazine in subjects with normal renal function or severe renal impairment; type: in vivo, human; conditions: for effect of severe renal impairment on AUC0-∞ / effect of severe renal impairment on Cmax: single dose valbenazine 40 mg (free base equivalent as ditosylate), fasted, severe renal impairment compared to normal renal function; for effect of renal status on protein binding: severe renal impairment vs normal renal function
Protocol: (§1) This was a Phase 1, open-label, single-dose, PK study of valbenazine to assess the safety and PK of valbenazine and its metabolites in subjects with normal renal function or severe renal impairment. A total of 16 subjects (8 with severe renal impairment and 8 with normal renal function) received a single dose of valbenazine 40 mg (free base equivalent as the ditosylate salt) under fasted conditions.

[2] = cited from earlier work
[3] = Safety and tolerability in the Phase 1 single-dose study (TEAEs, laboratory tests, vital signs, ECG); type: in vivo, human
Protocol: as §1

[4] = valbenazine 40 mg single dose, all 16 subjects

effect of severe renal impairment on AUC0-∞ [1]: no clinically meaningful effect
effect of severe renal impairment on Cmax [1]: no clinically meaningful effect
effect of renal status on protein binding ([1]; single dose valbenazine 40 mg): little effect
SMILES: COc1cc2c(cc1OC)[C@H]1C[C@@H](O)[C@H](CC(C)C)CN1CC2 [NBI-98782, (2R, 3R,11bR)-3-isobutyl-9,10-dimethoxy-1,3,4,6,7,11b-hexahydro-2H-pyrido[2,1-a]isoquinolin-2-ol]

SMILES: COc1cc2c(cc1OC)[C@H]1C[C@@H](OC(=O)[C@@H](N)C(C)C)[C@H](CC(C)C)CN1CC2 [Valbenazine ditosylate, L-Valine, (2R,3R,11bR)-1,3,4,6,7,11b-hexahydro-9,10-dimethoxy-3-(2-methylpropyl)-2H-benzo[a]quinolizin-2-yl ester, 4-methylbenzenesulfonate (1:2)]
solubility in water [2]: slightly soluble

SMILES: COc1cc2c(cc1OC)[C@H]1C[C@@H](OC(=O)[C@@H](N)C(C)C)[C@H](CC(C)C)CN1CC2 [valbenazine, (S)-2-amino-3-methyl-butyric acid (2R, 3R,11bR)-3-isobutyl-9,10-dimethoxy-1,3,4,6,7,11b-hexahydro-2H-pyrido[2,1-a]isoquinolin-2-yl ester]
urine clearance in subjects with severe renal impairment compared with normal renal function ([1]; single dose valbenazine 40 mg): reduction
effect of severe renal impairment on AUC0-∞ [1]: no clinically meaningful effect
effect of severe renal impairment on Cmax [1]: no clinically meaningful effect
effect of renal status on protein binding ([1]; single dose valbenazine 40 mg): little effect
treatment-related TEAE headache ([3]; normal renal function group): 1 subject
treatment-related TEAE somnolence ([3]; normal renal function group): 1 subject
treatment-related TEAE somnolence ([3]; severe renal impairment group): 1 subject
treatment-related TEAE vision blurred ([3]; severe renal impairment group): 1 subject
subjects with QTcF increase from baseline >60 msec ([3]; valbenazine 40 mg single dose): No subject
subjects with QTcF interval >480 msec ([3]; valbenazine 40 mg single dose): No subject
subjects who experienced TEAEs, each of the renal function groups ([3]; valbenazine 40 mg single dose, 8 subjects per group (normal renal function; severe renal impairment)): 2 (25.0%) subjects
tolerability ([3]; valbenazine 40 mg single dose, 16 subjects (8 normal renal function, 8 severe renal impairment)): well tolerated
deaths, serious or severe TEAEs, or discontinuations due to a TEAE [3, 4]: no deaths, serious or severe TEAEs, or discontinuations due to a TEAE
subjects who experienced TEAEs, overall [3, 4]: 4 (25.0%) subjects
treatment-related TEAEs reported [3, 4]: 3 subjects
changes in clinical laboratory tests, vital sign measurements, weight, or ECG parameters ([3]; valbenazine 40 mg single dose, during the study): no clinically significant changes

effect of severe renal impairment on AUC0-∞ [1]: no clinically meaningful effect
effect of severe renal impairment on Cmax [1]: no clinically meaningful effect
SMILES: COc1cc2c(cc1OC)[C@H]1C[C@@H](OC(=O)[C@@H](N)C(C)(C)O)[C@H](CC(C)C)CN1CC2 [NBI-136110]
